Key:
human purified sGC = human purified sGC (Homo sapiens (Human), UniProt Q02108+Q02153); assay: Measurement of sGC activation (enzyme): cGMP produced by human purified sGC, HTRF; assay type: biochemical; conditions: for EC50: concentration giving 50% of maximum activation; for sGC activation [%]: activation when the compound was not added taken as 100%, maximum concentration 100 μM, with SNP
Method: The activity of sGC was evaluated by measuring the amount of a cyclic guanosine monophosphate (cGMP) which is produced by human purified sGC.
A test compound was dissolved in DMSO and diluted 20-fold with ultrapure water. 2 μL of the diluted test compound solution (maximum concentration 100 μM), 2 μL of a substrate solution [0.5 μM TEBA, 0.03 μM dithiothreitol, 0.01 μM GTP, 0.04 μM MgCl2, and 0.03 μM sodium nitroprusside (SNP)], and 6 μL of a human enzyme suspension were added to 384-well plates (manufactured by Greiner Bio-One), and incubated at room temperature for one hour. The quantitative determination of cGMP is using HTRF which based on the competition between sample cGMP and fluorescent dye labeled cGMP for binding to a cGMP-specific antibody.
The test results of some Example compounds that are the compounds of the formula (I) of the present invention are shown below. The sGC activation of the test compound was calculated by taking the activation when the compound was not added as 100%. As compared with the activation when the compound was not added, it was recognized that a compound having a sGC activation of more than 300% has sGC activation. In addition, in Tables, Ex represents Example number in which the test compound is described and the sGC activation [%] represents sGC activation (%).
Furthermore, the EC50 [μM] value was calculated as another parameter for expressing sGC activation. This parameter indicates the concentration of the evaluated compound giving 50% of a maximum activation, which is calculated based on the maximum activation that compound of Example 102 is added, which is taken as 100%. In this connection, when a known sGC activator, YC-1 (Lificiguat, [5-(1-benzyl-1H-indazol-3-yl)-2-furyl]methanol), was evaluated according to the above Test Example 1, its maximum activation was 52% of the maximum activation for compound of Example 102. Further, “−” means no evaluation.

Wistar male rats [1] = assay: Blood flow increasing in vivo: hind limb blood flow in anesthetized rats, laser blood flow imaging; conditions: rat hind limb, oral, 2 hours after administration
Method: The hind limb blood flow in rats anesthetized with pentobarbital was measured by the following test method. Wistar male rats were used. […] Thus prepared administration liquid was orally administered, and 2 hours later, the hind limb blood flow was measured using a laser blood flow imaging device (PIM II Integral) under anesthesia with intraperitoneal administration of 60 mg/kg of pentobarbital.

Wistar male rats [2] = assay: Measurement of antihypertensive effect in vivo: blood pressure via carotid cannula after oral dosing; conditions: rat
Method: Wistar male rats were used. Three days prior to administration of a drug, a cannula (PE-50, Becton, Dickinson and Company, Japan) filled with heparin physiological saline (200 U/mL, Ajinomoto Pharmaceuticals Co., Ltd.) was inserted and placed in the common carotid artery under anesthesia with intraperitoneal administration of 60 mg/kg of pentobarbital. The other end of the cannula was exposed to the back neck through the subcutaneous. After the recovery period, the placed cannula was connected to a pressure transducer (Life Kit DTS DX-100, Nihon Kohden Corporation) to record the blood pressure waveform through a Polygraph (AP-641G, Nihon Kohden Co., Ltd.) and PowerLab (ML870 PowerLab8/30 (AD Instruments Japan)). The heart rate was calculated using a heart rate measuring unit (AT-601G, Nihon Kohden Co., Ltd.). After stabilization of the blood pressure, the drug was orally administered to measure the blood pressure and the heart rates. The test compounds were administered by appropriately adding N,N-dimethylformamide, Polyethylene Glycol 400, TWEEN 80, a 0.5% aqueous methylcellulose solution, and a 0.5 M aqueous sodium bicarbonate solution, and 0.1 M hydrochloric acid therein according to the compounds and dissolving it.
The results from the measurement according to Test Example 3 are shown below according to the following criteria with a maximum value of the mean blood pressure reduction. A: <20 mmHg, B: 20 to 40 mmHg, and C: >40 mmHg

[3] = maximum activation of Example 102 taken as 100%

human purified sGC, sequence (Q02153 whole entry): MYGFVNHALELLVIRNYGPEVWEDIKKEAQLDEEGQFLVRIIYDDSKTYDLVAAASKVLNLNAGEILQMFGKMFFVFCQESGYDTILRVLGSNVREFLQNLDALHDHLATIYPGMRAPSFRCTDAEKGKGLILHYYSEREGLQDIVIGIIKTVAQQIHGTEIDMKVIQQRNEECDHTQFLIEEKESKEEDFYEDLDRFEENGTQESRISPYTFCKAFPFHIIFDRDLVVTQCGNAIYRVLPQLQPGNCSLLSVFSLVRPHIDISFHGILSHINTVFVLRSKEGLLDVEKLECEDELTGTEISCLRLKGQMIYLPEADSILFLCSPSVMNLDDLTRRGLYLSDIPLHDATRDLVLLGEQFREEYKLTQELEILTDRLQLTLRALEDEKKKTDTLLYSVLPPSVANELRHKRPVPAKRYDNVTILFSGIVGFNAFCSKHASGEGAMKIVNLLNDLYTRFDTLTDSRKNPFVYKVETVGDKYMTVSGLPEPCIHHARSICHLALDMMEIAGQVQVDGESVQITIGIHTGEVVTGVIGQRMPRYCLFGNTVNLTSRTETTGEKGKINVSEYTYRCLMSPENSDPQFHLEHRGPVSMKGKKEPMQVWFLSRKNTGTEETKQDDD
human purified sGC, sequence (Q02108 whole entry): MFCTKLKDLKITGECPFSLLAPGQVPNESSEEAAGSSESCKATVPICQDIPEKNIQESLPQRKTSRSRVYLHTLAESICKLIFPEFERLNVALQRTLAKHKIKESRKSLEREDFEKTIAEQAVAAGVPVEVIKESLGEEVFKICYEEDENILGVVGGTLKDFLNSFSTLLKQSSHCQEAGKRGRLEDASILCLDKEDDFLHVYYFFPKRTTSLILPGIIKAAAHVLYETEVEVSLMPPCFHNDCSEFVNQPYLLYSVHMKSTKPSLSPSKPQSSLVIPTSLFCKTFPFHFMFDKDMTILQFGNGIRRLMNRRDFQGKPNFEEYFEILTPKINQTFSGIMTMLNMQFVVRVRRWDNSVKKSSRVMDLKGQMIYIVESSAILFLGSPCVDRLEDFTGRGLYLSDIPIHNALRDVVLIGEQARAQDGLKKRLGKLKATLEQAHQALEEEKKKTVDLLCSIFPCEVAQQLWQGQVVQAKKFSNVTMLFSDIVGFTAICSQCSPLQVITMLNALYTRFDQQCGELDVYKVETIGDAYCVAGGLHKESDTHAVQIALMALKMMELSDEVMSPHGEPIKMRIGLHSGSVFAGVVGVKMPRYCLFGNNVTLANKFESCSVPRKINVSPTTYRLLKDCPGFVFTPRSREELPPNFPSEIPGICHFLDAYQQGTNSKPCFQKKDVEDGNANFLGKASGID

Row | sGC activation [%] (human purified sGC) | SMILES | EC50 (human purified sGC; [3]) | blood flow increasing effect (Wistar male rats [1]; dose of 10 mg/kg) | other results
1 |  | Cc1nc2c(OCc3cccc(F)c3F)cccn2c1C(=O)N[C@@H]1c2ccccc2[C@H](O)[C@H]1O (stereo in doubt) [Ex 797] | 8.9 µM |  | 
2 |  | Cc1nc2c(OCc3ccccc3F)cccn2c1C(=O)N[C@@H]1c2ccccc2[C@H](O)[C@H]1O (stereo in doubt) [Ex 798] | 8.6 µM |  | 
3 |  | Cc1nc2c(OCC3CCCCC3)cccn2c1C(=O)N[C@@H](CO)c1ccccc1 [Ex 102] | 2.8 µM | exhibited a blood flow increasing effect | 
4 |  | Cc1nc2c(OCc3c(F)cccc3F)cccn2c1C(=O)N[C@@H](CO)c1ccccc1.Cl [Ex 119] | 2.9 µM | exhibited a blood flow increasing effect | 
5 |  | Cc1nc2c(OCC3CCCCC3)cccn2c1C(=O)NC(CO)CO [Ex 126] | 11 µM |  | 
6 |  | Cc1nc2c(OCC3CCCCC3)cccn2c1C(=O)N[C@@H](CC(=O)O)CC1CCC1 [Ex 179] | 2.7 µM | exhibited a blood flow increasing effect | 
7 | >1000% | Cc1nc2c(OCCC(C)(C)C)cccn2c1C(=O)N[C@@H](CO)c1ccccc1.Cl [Ex 205] |  |  | 
8 | >1000% | Cc1nc2c(OCC3CCCCC3)cccn2c1C(=O)N[C@H]1CCCN(C)C1 [Ex 226] | 6.7 µM |  | 
9 | >1000% | Cc1nc2c(OCc3c(F)ccc(F)c3F)cccn2c1C(=O)N[C@@H](CO)c1ccccc1.Cl [Ex 244] |  |  | blood flow increasing effect (Wistar male rats [1]; dose of 30 mg/kg): exhibited a blood flow increasing effect
10 |  | Cc1nc2c(OCc3c(F)cccc3F)cccn2c1C(=O)N[C@H]1CCCN(S(N)(=O)=O)C1 [Ex 247] | 2.4 µM | exhibited a blood flow increasing effect | 
11 | >1000% | Cc1nc2c(OCC3CCCCC3)cccn2c1C(=O)N[C@@H](CC(=O)O)c1ccccc1 [Ex 251] | 6.1 µM | exhibited a blood flow increasing effect | 
12 | >1000% | Cc1nc2c(OCC3CCCCC3)cccn2c1C(=O)N[C@@H]1c2ccccc2C[C@H]1C(=O)O [Ex 321] | 4.5 µM | exhibited a blood flow increasing effect | 
13 |  | Cc1nc2c(OCC3CCCCC3)cccn2c1C(=O)N[C@@H](C)c1cccc(C(=O)O)c1 [Ex 323] | 13 µM |  | 
14 | 980% | Cc1nc2c(OCC3CCCCC3)cccn2c1C(=O)N[C@H]1CCN(C)C1 [Ex 341] | 6.9 µM |  | blood flow increasing effect (Wistar male rats [1]; dose of 30 mg/kg): exhibited a blood flow increasing effect
15 |  | Cc1nc2c(OCc3c(F)cccc3F)cccn2c1C(=O)N[C@@H]1c2ccccc2C[C@H]1O.Cl [Ex 430] | 2.6 µM | exhibited a blood flow increasing effect | 
16 |  | Cc1nc2c(OCc3c(F)cccc3F)cccn2c1C(=O)N[C@@H]1c2ccccc2C[C@@H]1O.Cl [Ex 431] |  |  | Blood pressure reduction (maximum value of the mean blood pressure reduction) (Wistar male rats [2]; 10 mg/kg po): B (B: 20 to 40 mmHg)
17 |  | Cc1nc2c(OCc3c(F)cccc3F)cccn2c1C(=O)N[C@@H]1c2ccccc2C[C@H]1C(=O)O [Ex 434] | 7.3 µM |  | Blood pressure reduction (maximum value of the mean blood pressure reduction) (Wistar male rats [2]; 30 mg/kg po): C (C: >40 mmHg)
18 | >1000% | Cc1nc2c(OCc3c(F)cccc3F)cccn2c1C(=O)N[C@@H](CO)c1cccc(F)c1.Cl [Ex 436] |  |  | 

Row | sGC activation [%] (human purified sGC) | SMILES | EC50 (human purified sGC; [3]) | blood flow increasing effect (Wistar male rats [1]; dose of 10 mg/kg) | other results
19 | >1000% | Cc1cccc2c1C[C@@H](C(=O)O)[C@@H]2NC(=O)c1c(C)nc2c(OCC3CCCCC3)cccn12 [Ex 693] | 17 µM | exhibited a blood flow increasing effect | 
20 | >1000% | Cc1nc2c(OCC3CCCCC3)cccn2c1C(=O)N[C@@H]1c2c(F)cccc2C[C@H]1C(=O)O [Ex 704] | 11 µM | exhibited a blood flow increasing effect | 
21 |  | Cc1nc2c(OCC3CCCCC3)cccn2c1C(=O)N[C@H]1c2c(F)cccc2C[C@@H]1C(=O)O [Ex 705] | 11 µM |  | 
22 | >1000% | Cc1nc2c(OCC3CCCCC3)cccn2c1C(=O)N[C@@H]1c2ccc(F)cc2C[C@H]1C(=O)O [Ex 706] | 4.7 µM | exhibited a blood flow increasing effect | 
23 |  | Cc1nc2c(OCc3c(F)cccc3F)cccn2c1C(=O)N[C@@H]1c2ccccc2[C@@H](O)[C@H]1O [Ex 759] | 2.2 µM | exhibited a blood flow increasing effect | 
24 |  | Cc1nc2c(OCc3c(F)cccc3F)cccn2c1C(=O)N[C@H](c1ccccc1)[C@H](O)CO [Ex 760] | 5.9 µM | exhibited a blood flow increasing effect | 
25 |  | Cc1nc2c(OCc3c(F)cccc3F)cccn2c1C(=O)N[C@@]1(c2ccccc2)C[C@@H](O)[C@@H](O)C1 [Ex 766] | 17 µM |  | 
26 |  | Cc1nc2c(OCc3c(F)cccc3F)cccn2c1C(=O)N[C@]1(c2ccccc2)C[C@@H](O)[C@@H](O)C1 [Ex 767] | 3 µM | exhibited a blood flow increasing effect | 
27 |  | Cc1nc2c(OCc3c(F)cccc3F)cccn2c1C(=O)NC(C)(C)CO [Ex 772] | 5.4 µM |  | 
28 |  | Cc1nc2c(OCc3c(F)cccc3F)cccn2c1C(=O)N[C@H](C)CO [Ex 776] | 15 µM |  | 
29 |  | Cc1nc2c(OCc3c(F)cccc3F)cccn2c1C(=O)N[C@@H](CO)C(C)C [Ex 778] | 6.3 µM |  | 
30 |  | Cc1nc2c(OCc3c(F)cccc3F)cccn2c1C(=O)N[C@H]1CCCNC1 [Ex 822] | 5.6 µM |  | 
31 |  | Cc1ccc(C(CO)(CO)NC(=O)c2c(C)nc3c(OCc4c(F)cccc4F)cccn23)cc1 [Ex 827] |  |  | Blood pressure reduction (maximum value of the mean blood pressure reduction) (Wistar male rats [2]; 10 mg/kg po): B (B: 20 to 40 mmHg)
32 |  | Cc1nc2c(OCc3ccccc3F)cccn2c1C(=O)NC(CO)(CO)c1ccccc1 [Ex 828] | 7.6 µM |  | 
33 |  | Cc1nc2c(OCc3cccc(F)c3F)cccn2c1C(=O)NC(CO)(CO)c1ccccc1 [Ex 829] | 2.7 µM |  | 
34 |  | Cc1nc2c(OCc3c(F)cccc3F)cccn2c1C(=O)NC(CO)(CO)c1ccccn1 [Ex 834] | 4.1 µM | exhibited a blood flow increasing effect | 
35 |  | Cc1nc2c(OCC3CCCCC3)cccn2c1C(=O)N[C@@H](CC(=O)O)CC(C)C [Example 12, (3R)-3-({[8-(cyclohexylmethoxy)-2-methylimidazo[1,2-a]pyridin-3-yl]carbonyl}amino)-5-methylhexanoic acid] | 3 µM | exhibited a blood flow increasing effect | 
36 |  | OCc1ccc(-c2nn(Cc3ccccc3)c3ccccc23)o1 [YC-1, [5-(1-benzyl-1H-indazol-3-yl)-2-furyl]methanol, reference compound] |  |  | Emax (human purified sGC; maximum activation of Example 102 taken as 100%, read-out: maximum activation relative to the maximum activation for compound of Example 102): 52%

Row | SMILES | sGC activation [%] (human purified sGC) | EC50 (human purified sGC; [3]) | blood flow increasing effect (Wistar male rats [1]; dose of 10 mg/kg) | other results
37 | Cc1nc2c(OCc3c(F)cccc3F)cccn2c1C(=O)NC(CO)(CO)c1ccccc1.Cl [Ex 424] | >1000% | 2.4 µM | exhibited a blood flow increasing effect | 
38 | Cc1cccc2c1C[C@@H](C(=O)O)[C@@H]2NC(=O)c1c(C)nc2c(OCc3c(F)cccc3F)cccn12 [Ex 698] | >1000% | 19 µM | exhibited a blood flow increasing effect | 
39 | Cc1nc2c(OCc3c(F)cccc3F)cccn2c1C(=O)N[C@@H]1c2c(F)cccc2C[C@H]1C(=O)O [Ex 699] | >1000% | 15 µM | exhibited a blood flow increasing effect | 
40 | Cc1nc2c(OCc3c(F)ccc(F)c3F)cccn2c1C(=O)N[C@@H]1c2ccccc2C[C@H]1C(=O)O [Ex 702] | >1000% | 6.2 µM | exhibited a blood flow increasing effect | 

Source: patent US9447090B2, “Imidazopyridine compounds” (Astellas Pharma Inc., priority 2011, dated 2016)
